Assay results from ChEMBL document CHEMBL1201862, “PubChem BioAssay data set” (2004).
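These data come from cells grown in 96-well plates and exposed to compound for 48 hours at five concentrations. Abbreviation: GI50, concentration required for 50% inhibition of growth.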 Active and inactive are the calls of the source. Cut-off read from the data, not from the text of the source: active = GI50 up to about 1.1 µM and inactive = higher.

Assays:
Assay in all cases: growth of human tumour cells (NCI), 48 h
DLD-1 = tested on: DLD-1
COLO 205 = tested on: COLO 205
XF498 = tested on: XF498
SW-620 = tested on: SW-620
SK-MEL-5 = tested on: SK-MEL-5
NCI-H522 = tested on: NCI-H522
SF-539 = tested on: SF-539
HCT-15 = tested on: HCT-15
OVCAR-4 = tested on: OVCAR-4
DMS-114 = tested on: DMS-114
SF-268 = tested on: SF-268
SNB-19 = tested on: SNB-19
HCC 2998 = tested on: HCC 2998
IGROV-1 = tested on: IGROV-1
ACHN = tested on: ACHN
M14 = tested on: M14
TK-10 = tested on: TK-10
SF-295 = tested on: SF-295
SNB-78 = tested on: SNB-78
HOP-62 = tested on: HOP-62
MOLT-4 = tested on: MOLT-4
SK-MEL-28 = tested on: SK-MEL-28
HOP-92 = tested on: HOP-92
NCI-H226 = tested on: NCI-H226
KM-20L2 = tested on: KM-20L2
UACC-62 = tested on: UACC-62
Malme-3M = tested on: Malme-3M
SK-OV-3 = tested on: SK-OV-3
K562 = tested on: K562
RPMI-8226 = tested on: RPMI-8226
HCT-116 = tested on: HCT-116
786-0 = tested on: 786-0
A549 = tested on: A549
SR = tested on: SR
OVCAR-8 = tested on: OVCAR-8
SK-MEL-2 = tested on: SK-MEL-2
OVCAR-5 = tested on: OVCAR-5
CAKI-1 = tested on: CAKI-1
HL-60 = tested on: HL-60
U-251 = tested on: U-251
CCRF-CEM = tested on: CCRF-CEM
HT-29 = tested on: HT-29
LXFL 529 = tested on: LXFL 529
SN12C = tested on: SN12C
LOX IMVI = tested on: LOX IMVI
EKVX = tested on: EKVX
M19-MEL = tested on: M19-MEL
KM12 = tested on: KM12
UACC-257 = tested on: UACC-257
OVCAR-3 = tested on: OVCAR-3
SNB-75 = tested on: SNB-75
NCI-H23 = tested on: NCI-H23
UO-31 = tested on: UO-31
DMS-273 = tested on: DMS-273
NCI-H460 = tested on: NCI-H460

COc1cc(Cc2cc(OC)c(OC)c(OC)c2)ccc1O
GI50 (DLD-1): 6.11 µM (inactive)
GI50 (COLO 205): 77.8 µM (inactive)
GI50 (XF498): 19.9 µM (inactive)
GI50 (SW-620): 3.56 µM (inactive)
GI50 (SK-MEL-5): 3.85 µM (inactive)
GI50 (NCI-H522): 9.31 µM (inactive)
GI50 (SF-539): 9.31 µM (inactive)
GI50 (HCT-15): 3.28 µM
GI50 (OVCAR-4): 82.2 µM (inactive)
GI50 (DMS-114): 4.63 µM (inactive)
GI50 (SF-268): 36.3 µM (inactive)
GI50 (SNB-19): 23.9 µM (inactive)
GI50 (HCC 2998): 27 µM (inactive)
GI50 (IGROV-1): > 100 µM (inactive)
GI50 (ACHN): 40.9 µM (inactive)
GI50 (M14): 5 µM (inactive)
GI50 (TK-10): 88.5 µM (inactive)
GI50 (SF-295): 4.57 µM (inactive)
GI50 (SNB-78): 40.6 µM (inactive)
GI50 (HOP-62): 26.8 µM (inactive)
GI50 (MOLT-4): 4.27 µM (inactive)
GI50 (SK-MEL-28): 39.7 µM (inactive)
GI50 (HOP-92): 19.3 µM (inactive)
GI50 (NCI-H226): 93.1 µM (inactive)
GI50 (KM-20L2): 36.5 µM (inactive)
GI50 (UACC-62): 9.95 µM (inactive)
GI50 (Malme-3M): 2.41 µM (inactive)
GI50 (SK-OV-3): 39.4 µM (inactive)
GI50 (K562): 3.61 µM (inactive)
GI50 (RPMI-8226): 8.39 µM (inactive)
GI50 (HCT-116): 5.19 µM (inactive)
GI50 (786-0): 29.7 µM (inactive)
GI50 (A549): 8.59 µM (inactive)
GI50 (SR): 6.08 µM (inactive)
GI50 (OVCAR-8): 25.5 µM (inactive)
GI50 (SK-MEL-2): 3.11 µM (inactive)
GI50 (OVCAR-5): > 100 µM (inactive)
GI50 (CAKI-1): 62.1 µM (inactive)
GI50 (HL-60): 2.27 µM (inactive)
GI50 (U-251): 19.9 µM (inactive)
GI50 (CCRF-CEM): 6.32 µM (inactive)
GI50 (HT-29): 34.8 µM (inactive)
GI50 (LXFL 529): 43.6 µM (inactive)
GI50 (SN12C): 21.8 µM (inactive)
GI50 (LOX IMVI): 8.57 µM (inactive)
GI50 (EKVX): 27 µM (inactive)
GI50 (M19-MEL): 6.38 µM (inactive)
GI50 (KM12): 6.62 µM (inactive)
GI50 (UACC-257): 22.4 µM (inactive)
GI50 (OVCAR-3): 9.23 µM (inactive)
GI50 (SNB-75): 2.88 µM (inactive)
GI50 (NCI-H23): 11.2 µM (inactive)
GI50 (UO-31): 52.6 µM (inactive)

CCCCCC(=O)c1ccc2[nH]c3c(C)cc([N+](=O)[O-])c(C)c3c2c1
GI50 (COLO 205): 59.6 µM (inactive)
GI50 (XF498): > 100 µM (inactive)
GI50 (SW-620): 80.2 µM (inactive)
GI50 (SK-MEL-5): > 100 µM (inactive)
GI50 (NCI-H522): > 100 µM (inactive)
GI50 (DMS-273): 27.9 µM (inactive)
GI50 (SF-539): 45.6 µM (inactive)
GI50 (HCT-15): > 100 µM
GI50 (OVCAR-4): 89.3 µM (inactive)
GI50 (DMS-114): > 100 µM (inactive)
GI50 (SF-268): > 100 µM (inactive)
GI50 (SNB-19): > 100 µM (inactive)
GI50 (HCC 2998): > 100 µM (inactive)
GI50 (ACHN): > 100 µM (inactive)
GI50 (M14): 70 µM (inactive)
GI50 (TK-10): 26.6 µM (inactive)
GI50 (SF-295): 94.6 µM (inactive)
GI50 (SNB-78): > 100 µM (inactive)
GI50 (HOP-62): > 100 µM (inactive)
GI50 (MOLT-4): > 100 µM (inactive)
GI50 (SK-MEL-28): > 100 µM (inactive)
GI50 (NCI-H226): > 100 µM (inactive)
GI50 (NCI-H460): 82 µM (inactive)
GI50 (Malme-3M): > 100 µM (inactive)
GI50 (K562): 25.4 µM (inactive)
GI50 (RPMI-8226): > 100 µM (inactive)
GI50 (HCT-116): 90.8 µM (inactive)
GI50 (786-0): 36.1 µM (inactive)
GI50 (A549): 49.4 µM (inactive)
GI50 (SR): 56.8 µM (inactive)
GI50 (OVCAR-8): 75.5 µM (inactive)
GI50 (SK-MEL-2): > 100 µM (inactive)
GI50 (OVCAR-5): > 100 µM (inactive)
GI50 (CAKI-1): > 100 µM (inactive)
GI50 (HL-60): 98.2 µM (inactive)
GI50 (CCRF-CEM): 91.2 µM (inactive)
GI50 (HT-29): 75 µM (inactive)
GI50 (SN12C): > 100 µM (inactive)
GI50 (LOX IMVI): > 100 µM (inactive)
GI50 (EKVX): > 100 µM (inactive)
GI50 (M19-MEL): > 100 µM (inactive)
GI50 (KM12): > 100 µM (inactive)
GI50 (UACC-257): > 100 µM (inactive)
GI50 (OVCAR-3): 67.6 µM (inactive)
GI50 (SNB-75): > 100 µM (inactive)
GI50 (NCI-H23): 95.3 µM (inactive)
GI50 (UO-31): > 100 µM (inactive)
